For eight compounds, IC50 results are on record in patent US11072634B2, “Inhibitors of transglutaminases” (Zedira GmbH, priority 2016, dated 2021).

Experiment [1] addresses T1, TG2 (Homo sapiens, UniProt P21980).
T1 sequence (P21980 1-687): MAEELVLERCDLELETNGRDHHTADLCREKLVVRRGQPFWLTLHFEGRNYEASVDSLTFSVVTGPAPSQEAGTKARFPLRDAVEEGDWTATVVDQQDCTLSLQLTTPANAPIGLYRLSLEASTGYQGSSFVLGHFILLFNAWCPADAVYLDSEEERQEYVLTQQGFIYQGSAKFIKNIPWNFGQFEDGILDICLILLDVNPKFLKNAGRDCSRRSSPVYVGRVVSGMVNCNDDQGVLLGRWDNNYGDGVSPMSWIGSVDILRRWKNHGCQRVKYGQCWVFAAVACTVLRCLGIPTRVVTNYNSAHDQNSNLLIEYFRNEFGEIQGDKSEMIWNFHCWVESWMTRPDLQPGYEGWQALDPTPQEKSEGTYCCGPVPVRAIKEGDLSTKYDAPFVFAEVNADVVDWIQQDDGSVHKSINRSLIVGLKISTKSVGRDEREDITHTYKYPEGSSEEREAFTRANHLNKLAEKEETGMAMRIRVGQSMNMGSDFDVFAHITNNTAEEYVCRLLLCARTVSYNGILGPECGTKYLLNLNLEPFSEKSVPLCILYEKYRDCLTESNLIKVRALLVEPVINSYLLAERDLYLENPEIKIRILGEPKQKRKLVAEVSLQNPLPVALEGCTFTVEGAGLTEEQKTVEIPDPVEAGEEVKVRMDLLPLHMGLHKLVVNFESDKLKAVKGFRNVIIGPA
Kind of experiment: FXIII assay format using TG2 instead of FXIII (selectivity of FXIIIa blockers). The class given is biochemical. Here is the method:
(§1) 50 μg lyophilized His-tagged recombinant human factor XIII A-subunit (His6-rhFXIII, Zedira product 1027) is reconstituted in H2O (volume depends on original volume before lyophilization) resulting in a buffer containing 20 mM Tris-HCl, 150 mM NaCl, 1 mM EDTA, 1 mM DTT, 189 mg/ml maltodextrin, pH=7.5. The rhFXIII stock solution is diluted in buffer (50 mM Tris-HCl, 7.5 mM CaCl2, 150 mM NaCl, pH=7.4) to give a working solution of 59 U/ml (based on the amine-incorporation activity measured using transglutaminase activity assay #1036 (Zedira GmbH), described below).
(§2) A 10 mM inhibitor stock solution is prepared in DMSO, and from this a serial 1:2-fold dilution series is prepared also in DMSO. Each of the initial dilutions is subsequently diluted 1:50-fold with buffer (50 mM Tris-HCl, 7.5 mM CaCl2, 150 mM NaCl, pH=7.4) to yield the final working dilutions containing 2% (v/v) DMSO.
(§3) 15 μl of inhibitor working dilution are added per well of a 96 well microtiter plate. As control, 15 μl of a 2% (v/v) DMSO solution prepared using the buffer mentioned above are added per well.
(§4) 480 μl of His6-rhFXIII working solution and 120 μl human alpha thrombin (0.5 NIH units/μl) are added to 10.8 ml assay buffer (50 mM Tris-HCl, 7.5 mM CaCl2, 150 mM NaCl, 5 mM DTT, 13.4 mM glycine methylester, 50 μM Abz-NE(CAD-DNP)EQVSPLILLK-OH, (Zedira product A101; patent No.: EP 1781807B1), pH=7.4). From this master-mix solution, 285 μl are added per well containing the inhibitor. Increase in fluorescence is measured using […] and λem=418 nm at 37° C. for 35 min. A slope of the increase in fluorescence between 20 and 30 min is calculated for determination of the IC50 value (inhibitor concentration at which 50% of the initial FXIII activity is blocked).
This assay was also used to determine selectivity of inhibitors preferentially blocking FXIIIa by using TG2 instead of FXIII.
(§5) Analysis of enzymatic activity is performed by calculation of the slope of an increase in fluorescence intensity. IC50 values are calculated by plotting the enzymatic activity (as percentage from control containing 2% DMSO instead of inhibitor) against the inhibitor concentration. IC50 is defined as the inhibitor concentration blocking 50%) of initial enzyme activity.

Experiment [2] addresses T2, recombinant human factor XIII A-subunit (rhFXIII-A, plasma transglutaminase) (Homo sapiens, UniProt P00488).
T2 construct: His6; purchased Zedira 1027 (so in the source); T027)
T2 sequence (P00488 39-732 limits assumed): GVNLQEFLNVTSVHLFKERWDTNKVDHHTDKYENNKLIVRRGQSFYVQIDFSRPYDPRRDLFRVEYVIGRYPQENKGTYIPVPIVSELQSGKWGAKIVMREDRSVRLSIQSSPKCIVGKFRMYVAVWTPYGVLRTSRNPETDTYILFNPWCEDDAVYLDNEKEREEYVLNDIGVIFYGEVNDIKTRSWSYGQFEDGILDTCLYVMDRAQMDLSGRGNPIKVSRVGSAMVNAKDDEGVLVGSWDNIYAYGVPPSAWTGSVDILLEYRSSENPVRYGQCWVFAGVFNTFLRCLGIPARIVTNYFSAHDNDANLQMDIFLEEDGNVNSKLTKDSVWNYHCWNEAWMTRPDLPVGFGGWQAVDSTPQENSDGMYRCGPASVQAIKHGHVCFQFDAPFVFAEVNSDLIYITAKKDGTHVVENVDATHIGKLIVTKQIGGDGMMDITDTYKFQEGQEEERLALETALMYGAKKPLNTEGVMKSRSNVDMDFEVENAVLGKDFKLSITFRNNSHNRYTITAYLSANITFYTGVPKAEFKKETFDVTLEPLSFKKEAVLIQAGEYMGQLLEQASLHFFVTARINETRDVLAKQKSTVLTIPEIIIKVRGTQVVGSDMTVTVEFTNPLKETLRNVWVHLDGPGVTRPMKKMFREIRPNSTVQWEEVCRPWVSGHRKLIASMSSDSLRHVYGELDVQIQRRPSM
The experiment can be described thus: Inhibition of rec. human coagulation factor XIII (fluorescence, Abz-NE(CAD-DNP)EQVSPLILLK-OH). The experiment is classed as biochemical. On the procedure:
Method for Inhibition Studies of Rec. Human Coagulation Factor XIII (Plasma Transglutaminase, rhFXIII-A)
as §1, §2, §3, §4, §5

[3] abbreviates: Table 3, selectivity with respect to TG2, read-out: IC50 TG2.
The mark [4] stands for this setting: Table 3, FXIII inhibitors, read-out: IC50 FXIII.

SMILES strings stand for the structures. Like-named read-outs stand apart in the source and are kept apart here. *1 amine or outer side, *2 acyl side, *3 side chain or, on linkers, in order; H or OH if unused. Where a SMILES comes first, the peptide text is derived from it. [ ]: non-standard residue; d: D form. The star is where a group is joined. Nle(5,6-dioxo,6-NHMe) = CNC(=O)C(=O)CC[C@H](N)C(=O)O; X7 = O=C(CC[C@H](N[*:1])C(=O)[*:2])C(=O)NCc1ccccc1; X4 = O=C(CC[C@H](N[*:1])C(=O)[*:2])C(=O)NC1CC1; Isonicotinoyl(3-COOH) = O=C(O)c1cnccc1C(=O)*; X5 = NC(=O)C(=O)CC[C@H](N[*:1])C(=O)[*:2]; d(aIle) = CC[C@H](C)[C@@H](N)C(=O)O; Pro(4-oxo) = O=C1CN[C@H](C(=O)O)C1; Chg = N[C@H](C(=O)O)C1CCCCC1; Tle = CC(C)(C)[C@H](N)C(=O)O; Nle = CCCC[C@H](N)C(=O)O; X3 = Cc1nc(C(=O)*)cs1

The term IC50 denotes the concentration needed to halve the response being measured.

With `CC(C)(C)[C@H](NC(=O)[C@H](CCC(=O)C(N)=O)NC(=O)c1ccncc1C(=O)O)C(=O)N1CC(=O)C[C@H]1C(=O)N[C@H](C(=O)N[C@H](C(N)=O)C1CCCCC1)C1CCCCC1` [Compound E31, 4-((S)-6-amino-1-((S)-1-((S)-2-((S)-2-((S)-2-amino-1-cyclohexyl-2-oxoethylamino)-1-cyclohexyl-2-oxoethylcarbamoyl)-4-oxopyrrolidin-1-yl)-3,3-dimethyl-1-oxobutan-2-ylamino)-1,5,6-trioxohexan-2-ylcarbamoyl)nicotinic acid] ({Isonicotinoyl(3-COOH)}-[X5][Tle][Pro(4-oxo)][Chg][Chg]-NH2), the results for the IC50 in experiment [1] (setting [3]) and in experiment [2] (setting [4]) were more than 20000 nM and 5000 nM, respectively.
For the compound `CC(C)(C)[C@H](NC(=O)[C@H](CCC(=O)C(=O)NCc1ccccc1)NC(=O)c1ccncc1C(=O)O)C(=O)N1CC(=O)C[C@H]1C(=O)N[C@H](C(=O)N[C@H](C(N)=O)C1CCCCC1)C1CCCCC1` [Compound E29, 4-((S)-1-((S)-1-((S)-2-((S)-2-((S)-2-amino-1-cyclohexyl-2-oxoethylamino)-1-cyclohexyl-2-oxoethylcarbamoyl)-4-oxopyrrolidin-1-yl)-3,3-dimethyl-1-oxobutan-2-ylamino)-6-(benzylamino)-1,5,6-trioxohexan-2-ylcarbamoyl)nicotinic acid] ({Isonicotinoyl(3-COOH)}-[X7][Tle][Pro(4-oxo)][Chg][Chg]-NH2), the IC50 was more than 20000 nM in experiment [1] (setting [3]) and 850 nM in experiment [2] (setting [4]).
In the case of `CCCC[C@H](NC(=O)[C@H](CCC(=O)C(=O)NC)NC(=O)CNC(=O)[C@@H]1CCCN1C(=O)CNC(C)=O)C(=O)N[C@H](C(=O)N[C@@H](CC(C)C)C(=O)N1CCC[C@H]1C(=O)N[C@@H](Cc1c[nH]c2ccccc12)C(N)=O)[C@@H](C)CC` [Compound E36, (S)-2-(2-((S)-1-(2-acetamidoacetyl)pyrrolidine-2-carboxamido)acetamido)-N1-((S)-1-((2S,3S)-1-((S)-1-((S)-2-((S)-1-amino-3-(1H-indol-3-yl)-1-oxopropan-2-ylcarbamoyl)pyrrolidin-1-yl)-4-methyl-1-oxopentan-2-ylamino)-3-methyl-1-oxopentan-2-ylamino)-1-oxohexan-2-yl)-N6-methyl-5-oxohexanediamide] (Ac-GPG[Nle(5,6-dioxo,6-NHMe)][Nle]ILPW-NH2), the IC50 in experiment [1] (setting [3]) worked out at 800 nM; in experiment [2] (setting [4]), 3100 nM.
In the case of `CCCC(NC(=O)C1C2C(CN1C(=O)C(CC1CC1)NC(=O)C(CCC(=O)C(N)=O)NC(=O)c1cc(C(=O)O)cc([N+](=O)[O-])c1)C2(C)C)C(=O)N1CCCC1(C)C(=O)NC(C)COc1c(C)cccc1C` [Compound E10, 3-((2S)-6-amino-1-((2S)-3-cyclopropyl-1-((1R,2S)-2-((2S)-1-((2S)-2-(1-(2,6-dimethylphenoxy)propan-2-ylcarbamoyl)-2-methylpyrrolidin-1-yl)-1-oxopentan-2-ylcarbamoyl)-6,6-dimethyl-3-azabicyclo[3.1.0]hexan-3-yl)-1-oxopropan-2-ylamino)-1,5,6-trioxonexan-2-ylcarbamoyl)-5-nitrobenzoic acid], the IC50 in experiment [1] was found to be 100 nM; in experiment [2] it was 150 nM.
Regarding `CC[C@H](C)[C@@H](NC(=O)[C@H](CC(C)C)NC(=O)[C@H](CCC(=O)C(=O)NC1CC1)NC(=O)c1csc(C)n1)C(=O)N[C@@H](CC(C)C)C(=O)N1CCC[C@H]1C(=O)N[C@@H](Cc1c[nH]c2ccccc12)C(=O)N1CCC[C@H]1C(N)=O` [Compound E33, (S)—N1-((S)-1-((2R,3S)-1-((S)-1-((S)-2-((S)-1-((S)-2-carbamoylpyrrolidin-1-yl)-3-(1H-indol-3-yl)-1-oxopropan-2-ylcarbamoyl)pyrrolidin-1-yl)-4-methyl-1-oxopentan-2-ylamino)-3-methyl-1-oxopentan-2-ylamino)-4-methyl-1-oxopentan-2-yl)-N6-cyclopropyl-2-(2-methylthiazole-4-carboxamido)-5-oxohexanediamide] (X3-[X4]L[d(aIle)]LPWP-NH2), the results for the half-inhibitory concentration (IC50) in experiment [1] (setting [3]) and in experiment [2] (setting [4]) were 11500 nM and 16000 nM, respectively.
Consider `CCCC[C@H](NC(=O)[C@H](CCC(=O)C(=O)NC)NC(=O)CNC(=O)[C@@H]1CCCN1C(C)=O)C(=O)N[C@H](C(=O)N[C@@H](CC(C)C)C(=O)N1CCC[C@H]1C(=O)N[C@@H](Cc1c[nH]c2ccccc12)C(N)=O)[C@@H](C)CC` [Compound E35, (S)-2-(2-((S)-1-acetylpyrrolidine-2-carboxamido)acetamido)-N1-((S)-1-((2S,3S)-1-((S)-1-((S)-2-((S)-1-amino-3-(1H-indol-3-yl)-1-oxopropan-2-ylcarbamoyl)pyrrolidin-1-yl)-4-methyl-1-oxopentan-2-ylamino)-3-methyl-1-oxopentan-2-ylamino)-1-oxohexan-2-yl)-N6-methyl-5-oxohexanediamide] (Ac-PG[Nle(5,6-dioxo,6-NHMe)][Nle]ILPW-NH2), for which the IC50 turned out to be 525 nM in experiment [1] (setting [3]) and 1950 nM in experiment [2] (setting [4]).
For the compound `CC(C)(C)[C@H](NC(=O)[C@H](CCC(=O)C(N)=O)NC(=O)c1cnc(O)c([N+](=O)[O-])c1)C(=O)N1CCCCC1C(=O)N[C@H](C(=O)N[C@H](C(N)=O)C1CCCCC1)C1CCCCC1` (stereo in doubt) [Compound E09, (S)—N1-((S)-1-((R)-2-((S)-2-((S)-2-amino-1-cyclohexyl-2-oxoethylamino)-1-cyclohexyl-2-oxoethylcarbamoyl)piperidin-1-yl)-3,3-dimethyl-1-oxobutan-2-yl)-2-(6-hydroxy-5-nitronicotinamido)-5-oxohexanediamide], the IC50 in experiment [1] is 100 nM; in experiment [2], 150 nM.
In the case of `Cc1nc(C(=O)N[C@@H](CCC(=O)C(=O)NC2CC2)C(=O)N[C@H](C(=O)N2CC(=O)C[C@H]2C(=O)N[C@H](C(=O)N[C@H](C(N)=O)C2CCCCC2)C2CCCCC2)C(C)(C)C)cs1` [Compound E32, (S)—N1-((S)-1-((S)-2-((S)-2-((S)-2-amino-1-cyclohexyl-2-oxoethylamino)-1-cyclohexyl-2-oxoethylcarbamoyl)-4-oxopyrrolidin-1-yl)-3,3-dimethyl-1-oxobutan-2-yl)-N6-cyclopropyl-2-(2-methylthiazole-4-carboxamido)-5-oxohexanediamide] (X3-[X4][Tle][Pro(4-oxo)][Chg][Chg]-NH2), the results for the IC50 in experiment [1] (setting [3]) and in experiment [2] (setting [4]) were 1000 nM and 2650 nM, respectively.
